Here are results for seven compounds from patent US20250236617A1, “BICYCLIC TETRAHYDROTHIAZEPINE DERIVATIVES” (Hoffmann-La Roche Inc., priority 2022, published 2025).

For assay [1], the system named is primary human T-cells. Briefly: T-cell proliferation assay (CellTiter-Glo). The assay is classed as cell-based. The settings on record: CD3 condition; for EC50: proliferation after 5 days, CellTiter-Glo, read-out: Tcell Proliferation CD3 EC50; for Emax proliferation (% activation): 5 days, 20 μM reference compound A1 = 100%. How it is done: For coating of plates, PBS++ only or PBS++ with CD3 antibody (concentration depending on donor and determined by CD3 titrations) is added 100 μl/well to Poly-D Lysine coated 96-well plates. Plates are sealed and incubated at room temperature for 3 hours on a table-top rocking platform. After incubation, plates are washed once with PBS−− and filled with 40 μl/well culture medium only. Compounds are then added (see next section) to medium only plates. After 3 hours of culturing the T-cells, cells are filtered through a cell strainer (Miltenyi Biotech, #130-041-407), counted again and concentration is adjusted to 1.25 Mio/ml.
Cells are then seeded 80 μl/well to the 40 μl/well including dispensed compounds according to plate layout. By adding cells, compounds are further diluted 1:3, and resulting in 100 k cells/120 μl/well. After 48 hours 40 μl of supernatant is collected carefully from the top while not disturbing the cells. Cells are assessed for proliferation 5 days later by measuring […] using CellTiterGlo (Promega).
Compounds were added in a 5 or 6 pt dose response with the Tecan D300e Digital Dispenser, all conditions 3 times more concentrated than the end-concentration, since cells are added afterwards (80 μl cells to 40 μl prepared medium with treatment). […] The positive control was the reference compound A1 that was added in a dose response as well, additionally to 3 wells of only 20 μM representing the positive stimulator control. All wells were normalized with DMSO to a final concentration of 0.6% (0.2% end-concentration).
After 5 days, for detection of ATP which is directly proportional to the number of cells present per well, the CellTiter-Glo® 2.0 Reagent is used. After visual control for toxicity or precipitations of the tested compounds, the plates are equilibrated to room temperature for 45 minutes. CellTiter-Glo® 2.0 Reagent is equilibrated to room temperature as well. After equilibration, an equal amount of CellTiter-Glo reagent is added to the cells (80 μl/well) with an electronic multichannel pipette. Plates are placed on a rocking platform for 15 minutes at room temperature. After incubation, the bottom of the plates is sealed with backing tape. Luminescence is measured with PHERAstar FSX (interval time 0.5 sec, gain 3000, focal height 15 mm) and exported as CSV file for analysis in Genedata screener.
Calculations and Data Reporting CD3 and PBS plates were analysed separately in Genedata Screener using Roche Normalization PCT_POS_CTRL with DMSO set as Neutral Control and 20 μM of the reference compound A1 set as Stimulator Control/100%.
For CD3 conditions EC50 and Emax of the fitted sigmoidal curve were reported. If no curve could be fitted, the EC50 was reported as blank field and the Emax was based on individual data points. […] Compounds which activate unstimulated cells (see IL2 measurements) or compounds which negatively affected viability were flagged.
In general terms: In ATP-based viability assays light output follows the ATP content of the culture.

Assay [2] has as its system primary human T-cells. Kind of assay: IL2 secretion measurements in CD3-stimulated T-cells. The assay is classed as cell-based. The settings on record: CD3 condition; for Emax IL2 (% activation): 24 hours, 20 μM reference compound A1 = 100%; for EC50: IL2 secretion after 24 hours, read-out: Tcell IL2 CD3 EC50. On the procedure:
As readouts for T-cell activation, 1L2 secretion after 24 hours and proliferation after 5 days was measured. Increases in 1L2 secretion and proliferation upon compound treatment were assessed as the % of the maximum of reference compound A1. WO 2016/139181 discloses reference compound A1 as example 70. As a counter screen and to make sure that no unwanted TCR-independent activation was triggered, PBS conditions were run for all compounds.
Expanded primary human T-cells were thawed and cultured in RPMI 1640 (Gibco, #61870-010)+5% human serum (HS, Sigma, #H3667)+1 mM Sodium Pyruvate (Gibco, #11360-039)+50 μM 2-mercaptoethanol (Gibco, #31350-010) and 1× Pen-Strep (Life Technologies, #15140122) medium at density of 2 Mio/ml for 3 hours in 5% CO2, 37° C. and 95% humidity. For coating of plates, […] or PBS++ with CD3 antibody (concentration depending on donor and determined by CD3 titrations) was added 100 μl/well to Poly-D Lysine coated 96-well plates. Plates were sealed and incubated at room temperature for 3 hours on a table-top rocking platform. After incubation, plates were washed once with PBS−− and filled with 40 μl/well culture medium only. Compounds were then added (see next section) to medium only plates. After 3 hours of culturing the T-cells, cells were filtered through a cell strainer (Miltenyi Biotech, #130-041-407), counted again and concentration was adjusted to 1.25 Mio/ml.
Cells were then seeded 80 μl/well to the 40 μl/well including dispensed compounds according to plate layout. By adding cells, compounds were further diluted 1:3, and resulting in 100 k cells/120 μl/well. After 24 hours 40 μl of supernatant was collected carefully from the top while not disturbing the cells and transferred into a round bottom 96 well plate. Collected and frozen supernatant was used for detection of IL2 using the IL-2 Human ProQuantum Immunoassay Kit (Invitrogen) or using the Human IL-2 ELISA Kit (Thermo Fisher).
Compounds were added in a 5 or 6 pt dose response with the Tecan D300e Digital Dispenser, all conditions 3 times more concentrated than the end-concentration, since cells are added afterwards (80 μl cells to 40 μl prepared medium with treatment). The DR was starting at 20 μM or 10 μM final top concentration and a dilution factor of 3.333. The positive control was the reference compound A1 that was added in a dose response as well, additionally to 3 wells of only 20 μM representing the positive stimulator control. All wells were normalized with DMSO to a final concentration of 0.6% (0.2% end-concentration).
The immunoassay is done following the manufacturer's manual (Invitrogen, #A35603). Additional information: For the immunoassay, MicroAmp™ EnduraPlate™ Optical 384-Well plates are used. Frozen supernatant is thawed and centrifuged for 5 minutes at 1000×g, both steps at 4° C. After centrifugation, required sample amount is taken from the top, and in a separate LightCycler V-bottom plate (working plate) diluted with assay dilution buffer, dilution factor depending on the PBS or CD3 condition but at least 1:3. IL-2 standard and blanks are prepared in the same V-bottom plate, standard with a range of […] (extended version). After preparation, 5 μl of sample dilutions or standard/blanks are transferred to the optical 384-well plate (assay plate) and the 10 μl reaction protocol is being followed. For measurement, the QuantStudio 12K Flex system is used. Raw data is extracted and IL-2 concentrations are calculated with the Thermo Fisher online app (apps.thermofisher.com/apps/proquantum).
ELISA is done following the manufacturer's manual (Thermo Fisher Scientific, #88-7025-88). Additional information: For the ELISA Nunc MaxiSorp 96 well plates are used. Frozen supernatant is thawed and centrifuged for 5 minutes at 1000×g, both steps at 4° C. […]

In assay [3] the target is DGKalpha (hDGKalpha(1-735)-N-His) (Homo sapiens (Human), UniProt P23743). Briefly: In vitro DGK inhibition assay, ADP-Glo (in house), DGKalpha. Format: biochemical. The settings on record: DLG liposomes, 25 μM ATP, 4 nM enzyme, 1 hour reaction. How it is done:
(§1) DGK α and ζ kinases use ATP to phosphorylate the substrate 1,2-dilauroyl-sn-glycerol (DLG, incorporated in the liposomes). ATP is converted to ADP as a result of this enzymatic reaction.
(§2) After the kinase reaction, an ATP-depletion reagent is added to terminate the kinase reaction and deplete any remaining ATP, leaving only ADP. Second, a detection reagent is added to simultaneously convert ADP to ATP and allow the newly synthesized ATP to be converted to light using a coupled luciferase/luciferin reaction.
(§3) Purification of both enzymes was performed as previously described by Takahashi et al., PeerJ, 2018 (Takahashi, D.; Sakane, F. Expression and purification of human diacylglycerol kinase alpha from baculovirus-infected insect cells for structural studies. PeerJ 2018, 6, No. e5449).
(§4) A concentrated liposome solution was prepared in assay buffer without DTT and BSA: 2 mM of DLG in 21 mM of total liposome (2 mM DLG/8 mM PS/11 mM PC). The reaction mixtures contain the assay buffer with a final DLG concentration of 125 uM ATP concentrations of 25 μM (for DGKA assay) or 50 μM (for DGKZ assay). The reactions were started by addition of DGK α and ζ kinases at 4 nM and 2 nM final concentrations, respectively. After 1 hour reaction, the amount of ADP formed was detected with the ADP-Glo kinase assay (Promega) according to the manufacturer instructions. Compounds were added in 11-points dose response, starting at […], 1:3 dilutions, with a final DMSO concentration of 2%. The multidrop combi was used as a liquid handler and luminescence was read with 0.5 s by the envision reader (PE).

The target of assay [4] is DGKzeta (hDGKzeta(1-928)-N-His) (Homo sapiens (Human), UniProt Q13574). Kind of assay: In vitro DGK inhibition assay, ADP-Glo (in house), DGKzeta. The assay is classed as biochemical. The settings on record: DLG liposomes, 50 μM ATP, 2 nM enzyme, 1 hour reaction. How it is done: as §1, §2, §3, §4
Chain of DGKzeta (hDGKzeta(1-928)-N-His) (Q13574 whole entry): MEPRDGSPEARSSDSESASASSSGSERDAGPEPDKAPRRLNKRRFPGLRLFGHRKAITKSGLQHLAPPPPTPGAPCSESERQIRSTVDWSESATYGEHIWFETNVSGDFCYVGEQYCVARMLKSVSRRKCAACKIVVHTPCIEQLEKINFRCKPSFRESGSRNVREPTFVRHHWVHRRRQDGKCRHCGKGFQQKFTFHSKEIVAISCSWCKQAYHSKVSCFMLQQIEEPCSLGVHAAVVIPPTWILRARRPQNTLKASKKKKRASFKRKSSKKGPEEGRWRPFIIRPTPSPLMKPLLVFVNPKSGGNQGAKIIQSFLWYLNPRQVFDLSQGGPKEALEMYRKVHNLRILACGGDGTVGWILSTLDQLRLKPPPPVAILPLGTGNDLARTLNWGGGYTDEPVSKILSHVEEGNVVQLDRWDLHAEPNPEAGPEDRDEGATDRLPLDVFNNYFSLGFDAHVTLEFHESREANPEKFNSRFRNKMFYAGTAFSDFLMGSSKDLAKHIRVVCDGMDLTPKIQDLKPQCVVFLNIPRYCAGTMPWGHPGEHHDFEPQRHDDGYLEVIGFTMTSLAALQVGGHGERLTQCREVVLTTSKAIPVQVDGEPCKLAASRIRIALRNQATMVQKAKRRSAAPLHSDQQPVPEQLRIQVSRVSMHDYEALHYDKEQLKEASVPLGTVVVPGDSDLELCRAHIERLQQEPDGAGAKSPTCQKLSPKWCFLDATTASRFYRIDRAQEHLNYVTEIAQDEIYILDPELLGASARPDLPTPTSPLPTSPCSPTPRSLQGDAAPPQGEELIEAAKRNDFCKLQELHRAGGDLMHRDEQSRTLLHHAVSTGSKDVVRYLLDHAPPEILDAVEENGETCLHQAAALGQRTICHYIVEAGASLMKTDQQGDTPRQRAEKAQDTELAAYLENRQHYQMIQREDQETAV
Background: ADP-Glo turns the ADP formed in a reaction into a luminescent signal.

Chain of DGKalpha (hDGKalpha(1-735)-N-His) (P23743 whole entry): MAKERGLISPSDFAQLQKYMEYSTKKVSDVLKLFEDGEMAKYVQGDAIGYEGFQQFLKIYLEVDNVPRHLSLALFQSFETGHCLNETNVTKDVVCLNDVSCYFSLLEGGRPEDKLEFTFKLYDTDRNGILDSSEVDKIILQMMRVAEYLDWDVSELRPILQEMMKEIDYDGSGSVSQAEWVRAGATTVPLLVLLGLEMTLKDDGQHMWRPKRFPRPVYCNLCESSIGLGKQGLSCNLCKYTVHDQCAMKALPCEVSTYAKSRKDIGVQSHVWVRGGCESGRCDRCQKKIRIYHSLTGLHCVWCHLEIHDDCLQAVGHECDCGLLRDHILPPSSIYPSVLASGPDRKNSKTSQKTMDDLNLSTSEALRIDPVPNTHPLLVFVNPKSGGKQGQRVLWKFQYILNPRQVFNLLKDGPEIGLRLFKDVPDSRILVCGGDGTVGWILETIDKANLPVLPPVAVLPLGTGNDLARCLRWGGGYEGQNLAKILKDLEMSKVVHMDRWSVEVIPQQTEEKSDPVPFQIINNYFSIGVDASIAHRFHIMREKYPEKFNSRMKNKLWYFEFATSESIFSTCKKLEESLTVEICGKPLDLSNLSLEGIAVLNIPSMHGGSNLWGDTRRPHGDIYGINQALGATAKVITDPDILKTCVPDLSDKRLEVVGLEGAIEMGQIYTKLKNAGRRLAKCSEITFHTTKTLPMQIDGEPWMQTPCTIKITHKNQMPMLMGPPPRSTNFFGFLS

As for `CCN(CC)c1cnnc(-c2cc3c(cc2F)S(=O)(=O)C[C@H](N)C(=O)N3Cc2ccc(Cl)cc2)n1` [Example 15, (3R)-3-amino-5-[(4-chlorophenyl)methyl]-7-[5-(diethylamino)-1,2,4-triazin-3-yl]-8-fluoro-1,1-dioxo-2,3-dihydro-1λ6,5-benzothiazepin-4-one], the EC50 in the assay on primary human T-cells [1] (Homo sapiens, T-cell, 120 h) was found to be 1710 nM; in the assay with primary human T-cells [2] (Homo sapiens, T-cell) it was 1650 nM. For the same compound, in the assay on primary human T-cells [2], the “Emax IL2 (% activation)” value came out at 79 % activation.
The matching figures for `Cc1ncc(-c2cc3c(cc2F)S(=O)(=O)C[C@H](N)C(=O)N3Cc2ccc(Cl)cc2)cc1C(C)(C)C` [Example 16, (3R)-3-amino-7-(5-tert-butyl-6-methyl-3-pyridyl)-5-[(4-chlorophenyl)methyl]-8-fluoro-1,1-dioxo-2,3-dihydro-1λ6,5-benzothiazepin-4-one]: 36 nM, 1110 nM and 87 % activation.
What is called IC50 is the point on the concentration scale where inhibition reaches its midpoint. Regarding `N[C@H]1CS(=O)(=O)c2cc(F)c(-c3nncc(N4CCC(F)(F)CC4)n3)cc2N(Cc2ccc(Cl)cc2)C1=O` [Example 17, (3R)-3-amino-5-[(4-chlorophenyl)methyl]-7-[5-(4,4-difluoro-1-piperidyl)-1,2,4-triazin-3-yl]-8-fluoro-1,1-dioxo-2,3-dihydro-1λ6,5-benzothiazepin-4-one], the “Emax proliferation (% activation)” value with primary human T-cells [1] came out at 104 % activation. Also, the EC50 in the assay on primary human T-cells [1] (Homo sapiens, T-cell, 120 h) is 342 nM; in the assay with primary human T-cells [2] (Homo sapiens, T-cell), 449 nM. The “Emax IL2 (% activation)” value in the assay on primary human T-cells [2] came out at 62 % activation. Moreover, the values for the IC50 in assay [3] and in assay [4] were 7880 nM and 650 nM, respectively.
Turning to `CS(=O)(=O)C1(c2cnnc(-c3cc4c(cc3F)S(=O)(=O)C[C@H](N)C(=O)N4Cc3ccc(Cl)cc3)n2)CC1` [Example 19, (3R)-3-amino-5-[(4-chlorophenyl)methyl]-8-fluoro-7-[5-(1-methylsulfonylcyclopropyl)-1,2,4-triazin-3-yl]-1,1-dioxo-2,3-dihydro-1λ6,5-benzothiazepin-4-one], the EC50 in the assay on primary human T-cells [1] (Homo sapiens, T-cell, 120 h) is 2090 nM; in the assay with primary human T-cells [2] (Homo sapiens, T-cell) it was 5710 nM. The “Emax IL2 (% activation)” value in the assay on primary human T-cells [2] is on record as 45 % activation.
Take `CC(C)(C)c1cncc(-c2cc3c(cc2F)S(=O)(=O)C[C@H](N)C(=O)N3Cc2ccc(-c3noc(C(F)(F)F)n3)cc2)c1` [Example 22, (3R)-3-amino-7-(5-tert-butyl-3-pyridyl)-8-fluoro-1,1-diketo-5-[4-[5-(trifluoromethyl)-1,2,4-oxadiazol-3-yl]benzyl]-2,3-dihydro-1λ6,5-benzothiazepin-4-one]: the “Emax proliferation (% activation)” value with primary human T-cells [1] turned out to be 228 % activation. The EC50 in the assay on primary human T-cells [1] (Homo sapiens, T-cell, 120 h) was determined as 92 nM; in the assay with primary human T-cells [2] (Homo sapiens, T-cell), 811 nM. Moreover, in the assay on primary human T-cells [2], the “Emax IL2 (% activation)” value came to 458 % activation.
In the case of `COc1cncc(-c2cc3c(cc2F)S(=O)(=O)C[C@H](N)C(=O)N3Cc2ccc(Cl)cc2)c1` [Example 26, (3R)-3-amino-5-[(4-chlorophenyl)methyl]-8-fluoro-7-(5-methoxy-3-pyridyl)-1,1-dioxo-2,3-dihydro-1λ6,5-benzothiazepin-4-one], the EC50 in the assay with primary human T-cells [1] (Homo sapiens, T-cell, 120 h) was 416 nM; in the assay with primary human T-cells [2] (Homo sapiens, T-cell), above 10000 nM. Also, the “Emax IL2 (% activation)” value in the assay with primary human T-cells [2] is listed as 29 % activation.
In the case of “(3R)-3-amino-5-(4-chlorobenzyl)-8-fluoro-1,1-diketo-7-[5-(trifluoromethoxy)-3-pyridyl]-2,3-dihydro-1λ6,5-benzothiazepin-4-one [Example 5]”, the EC50 is 319 nM with primary human T-cells [1] and 604 nM with primary human T-cells [2]. Further, the “Emax IL2 (% activation)” value with primary human T-cells [2] turned out to be 100 % activation. Also, in assay [3], the IC50 is above 62500 nM.
